Reference: US20180206529A1, “FAST-DISSOLVING, CO-CRYSTALLINE FORMS OF SODIUM CHLORIDE” (NESTEC S.A., priority 2015, published 2018)

Experiments:
Type in all cases: physicochemical
[1] = Dissolution kinetics via microscopic analysis (video-microscopy of one individual crystal in water); conditions: 100-200 μm, fully immersed in 10 μL of water
Procedure: One individual crystal of sodium chloride, Glucose monohydrate, anhydrous Glucose and of (Glucose)2⋅NaCl⋅H2O co-crystal prepared according to the method of Example 3 was tested for its dissolution behavior by microscope. The analysis was performed in analogy to the method described by Quilaqueo et al. (“Dissolution of NaCl crystals in artificial saliva and water by video-microscopy”, Food Research International 69, 2015, p. 373-380).
A digital microscope was used to perform video-microscopy on the co-crystals and their respective individual components. Crystal size in general ranged between 100-200 μm. Images were recorded on a DFC450 digital microscope from Leica Microsystems with a high quality 5 Megapixel CCD sensor. The light intensity and contrast were controlled by using a VH-K20 Variable Illumination. The software used to record and analyze the video images was provided by the supplier of the module Leica LAS MultiTime.
One individual crystal specimen of sufficient quality and crystallinity was fixed on the microscope table using double-face adhesive tape. The crystal was fully immersed in 10 μL of water and the video recorded in parallel. The recording was dissected into individual film stills and the remaining crystalline area was determined until complete dissolution occurred using the respective software.
Applying this methodology, a first order kinetic was used to interpret the result:
Where At is the area (μm^2) of the remaining solid crystal at a time t (in seconds), A0 is the initial area (μm^2) of the crystal, t is the time (s) and k is the constant (s^−1).

[2] = Glucose NaCl kinetics of dissolution via refractometry; conditions: 60 mL of water, stirring, particle size 100-200 μm, average of three experiments
Procedure: The (Glucose)2⋅NaCl⋅H2O co-crystals of Example 3 were tested for their dissolution behavior by refractometry. The equipment used was a RFM300+ refractometer by Bellingham and Stanley. The test samples were added to 60 mL of water, and the dissolution was measured under stirring at 50 rpm using a refractometer with one measurement/second for […]. Every dissolution experiment was performed three times and the average value was calculated. The particle size was 100-200 μm.

[3] = Dissolution kinetics via refractometry for the system sucrose/sodium chloride; conditions: 60 mL of water, room temperature, constant stirring, particle size 63-100 μm
Procedure: Changes in refraction of the solution were measured at room temperature while adding a defined amount of solid material to the solvent (60 mL of water) under constant stirring. The equipment used is composed of a magnetic stirrer and a digital refractive index probe (Fiso technologies) capable of constant measurement. Once the powder is added, refractive indices are recorded as a function of time. This technique was used to compare the dissolution behavior of the sucrose⋅NaCl⋅H2O co-crystal with its pure individual components as well as the physical mixture of the two pure ingredients. The particle size of all solids was standardized to be in between 63-100 μm.
Quantities Used for the Measurements:
Sucrose⋅NaCl⋅H2O co-crystal 2.00 g

Structure (SMILES) | dissolution speed (normalized refractive index versus time, FIG. 7) [3] | k, constant of first order dissolution kinetic (crystal area over time) [1] | 10% dissolution reached at [2] | 50% dissolution reached at [2] | 90% dissolution reached at [2] | 90% dissolution reached at ([2]; listed as (Glucose)2⋅NaCl⋅H2O) | 90% dissolution reached at ([2]; listed as (Glucose)2⋅NaCl⋅H2O co-crystals)
O.OC[C@H]1O[C@H](O)[C@H](O)[C@@H](O)[C@@H]1O.OC[C@H]1O[C@H](O)[C@H](O)[C@@H](O)[C@@H]1O.[Cl-].[Na+] [(Glucose)2•NaCl•H2O co-crystal, (α-D-Glucose)2⋅NaCl⋅H2O] | – | 0.19 s⁻¹ | 6 s | 11 s | 25 s | 25 s | ≤ 25 s
OC[C@H]1OC(O)[C@H](O)[C@@H](O)[C@@H]1O (stereo partly drawn) [Anhydrous Glucose] | – | 0.14 s⁻¹ | 6 s | 17 s | 289 s | – | –
O.OC[C@H]1O[C@H](O)[C@H](O)[C@@H](O)[C@@H]1O [Glucose monohydrate, alpha-D-(+)-Glucose monohydrate] | – | 0.08 s⁻¹ | 6 s | 51 s | 214 s | – | –
[Cl-].[Na+] [NaCl, sodium chloride] | dissolves the fastest | 0.21 s⁻¹ | 4 s | 8 s | 29 s | – | –

Second part, led by results:

dissolution speed (normalized refractive index versus time, FIG. 7) [3] | Structure (SMILES) | k, constant of first order dissolution kinetic (crystal area over time) [1] | 10% dissolution reached at [2] | 50% dissolution reached at [2] | 90% dissolution reached at [2] | 90% dissolution reached at ([2]; listed as (Glucose)2⋅NaCl⋅H2O) | 90% dissolution reached at ([2]; listed as (Glucose)2⋅NaCl⋅H2O co-crystals)
dissolves much slower | OC[C@H]1O[C@@](CO)(O[C@H]2O[C@H](CO)[C@@H](O)[C@H](O)[C@H]2O)[C@@H](O)[C@@H]1O [Pure sucrose, (D)-(+)-Sucrose] | – | – | – | – | – | –
dissolved almost as fast | O.O.OCC1OC(OC2(CO)OC(CO)C(O)C2O)C(O)C(O)C1O.[Cl-].[Na+] (stereo not drawn) [sucrose⋅NaCl⋅H2O co-crystal, Sucrose⋅NaCl⋅2 H2O] | – | – | – | – | – | –
